Measurements published in patent publication US20230220331A1, “TEMPORARY TREATMENT MEDIUM, TREATMENT KIT, EMBRYOGENESIS ARREST INHIBITOR, EMBRYOGENESIS ARREST INHIBITORY METHOD, DEVELOPMENTAL ENGINEERING PRODUCT PREPARATION METHOD, TRANSPLANTATION METHOD, THERAPEUTIC METHOD, AND DEVELOPMENTAL ENGINEERING PRODUCT” (priority 2020, published 2023).

Experiments:
[1] = system: two-cell frozen embryo of a heterologous inbred SPR2 mouse; test: ES cell establishment from SPR2 frozen embryos (Treatment Example 3); assay type: cell-based, Mus spretus; settings: 5 SPR2 frozen embryos thawed and cultured to blastocyst in Y-27632 medium
Description: (§1) 5. Then, if necessary, the culture was continued in the Y-27632-free mWM medium to establish ES cells.
After thawing a two-cell frozen embryo of a heterologous inbred SPR2 mouse, it was cultured to a blastocyst in the temporary treatment medium containing Y-27632, and an attempt was made to establish ES cells. As a result, ES cells could be efficiently established (5 frozen embryos, 2 strains established). On the other hand, when Y-27632 was not added, no individual production and ES cells were established.

[2] = system: Early embryos of the heterologous inbred SPR2 mouse; test: ES cell establishment from electroporated early embryos (Treatment Example 4); assay type: cell-based, Mus spretus; settings: SPR2 early embryos cultured in Y-27632 medium, then electroporated
Description: (§2) 1. Up to 3 hours before TAKE, Y-27632-added mWM medium (Y-27632 final concentration 10 μM, an example of the “temporary treatment medium” of this example), Y-27632-free mWM medium (an example of “normal medium” of this example) were dropped into 35 mm Petri dishes by 5 drops, respectively, to prepare drops covered with paraffin oil.
(§3) 2. Two-cell stage embryos were collected from the drops or thawed, placed in Y-27632-added mWM medium, and cultured for about 30 minutes to 1 hour (temporary treatment).
(§4) 3. After that, TAKE was performed.
(§5) 4. After TAKE, the embryos were placed in Y-27632-added mWM medium and cultured for about 30 minutes to 1 hour (temporary treatment). Then, the embryos were placed in Y-27632-free mWM medium and cultured at 37° C. under 5% CO2 and 5% O2 conditions until transplantation.
as §1
When Mus caroli ES cells were knocked out of the Tyr gene by genome editing and a part of them was analyzed, it was shown that NHEJ occurred and heterologous mouse ES cells were established.

[3] = system: immunodeficient mouse (nude) pronuclear stage embryos, BALB/c-nu; test: Multi-gene knockout (BBOX1, IL2RG) in nude mouse embryos (Treatment Example 7); assay type: cell-based
Description: 1. Up to 3 hours before TAKE, Y-27632-added mWM medium (Y-27632 final concentration 10 μM, an example of the “temporary treatment medium” of this example) and Y-27632-free mWM medium (an example of “normal medium” of this example) were dropped into 35 mm Petri dishes by 5 drops, respectively, to prepare the drops covered with paraffin oil.
2. Pronuclear stage embryos were collected from the drops, placed in Y-27632-added mWM medium, and cultured for about 30 minutes to 1 hour (temporary treatment).
as §4
4. After TAKE, the embryos were placed in Y-27632-added mWM medium and cultured for about 30 minutes to 1 hour (temporary treatment).
5. Then, the embryos were placed in Y-free mWM medium and cultured at 37° C. under 5% CO2 and (5% O2) conditions until the next day. If necessary, culture was continued or embryo transfer was performed in Y-27632-free mWM medium.
In this production example, a multi-gene KO mouse was prepared by using an immunodeficient mouse (nude, a nude mouse) embryo.
Specifically, a male of BALB/c-nu/nu and a female of BALB/c-nu/+ treated with ovarian hyperstimulation were crossed, and a pronuclear stage embryos were collected. The guide RNAs (crRNA: tracrRNA), which are two for the BBOX1 gene and two for the IL2RG gene, are electroporated at about 100 ng/μL per guide RNA, totaling about 400 ng/μL, are electroporated with 14 transfer pulses, and, before and after the electroporation, the embryos were cultured in the temporary treatment medium of this example.

[4] = system: two-cell stage embryo of a heterologous inbred SPR2 mouse; test: Heterologous Tyr knockout mouse production (Treatment Example 8); assay type: cell-based, Mus spretus; settings: SPR2, Tyr KO
Description: as §2, §3, §4, §5
By using a two-cell stage embryo of a heterologous inbred SPR2 mouse, four guide RNAs (crRNA: tracrRNA) for the Tyr gene were used about 100 ng/μL per RNA, for a total of about 400 ng/μL, and it was electroporated once or twice. Before and after electroporation, the embryos were cultured in the temporary treatment medium of this example.

[5] = system: frozen embryos of C57BL/6J; test: Recovery of re-frozen and re-thawed blastocysts, cytochalasin B vs Y-27632 (Treatment Example 10); assay type: cell-based, mouse; settings: 10 μM in mWM; 19 embryos
Description: In this treatment example, as in the above-mentioned treatment example 9, the normal medium (hereinafter, referred to as “Y− medium” as in the treatment example 9), the temporary treatment medium to which Y-27632 is added (hereinafter, referred to as “Y+ medium” as in the treatment example 9), and a CB-added medium (hereinafter, referred to as “CB+ medium”) were used. The concentrations of CB in the CB+ medium were 5 μM and 10 μM are prepared. As the manipulation, the recovery rates when frozen embryos were thawed and developed, then re-frozen in blastocysts and re-thawed were compared.
For the treatment, 107 frozen embryos of C57BL/6J (provided from CLEA Japan, Inc.) at the 2-cell stage were used. Firstly, the frozen embryos at the 2-cell stage were thawed and blastocysts were developed as they were in a normal medium.
Then, the blastocysts were then transferred to each of the above media and placed for 30 minutes. Then, the embryos were transferred to Y− medium again and placed for 30 minutes.
Then, each embryo was frozen.
Then, the embryos were then thawed and placed in M2 medium for 10 minutes.
Then, each embryo was evenly divided and placed on the medium for 1 hour.
The embryos were observed by returning to the Y− medium again. This observation was performed immediately after thawing, 3 hours later, and 24 hours later.

[6] = system: NOD-scid Bbox1, IL2RG double knock-out mice; test: Passage efficiency of mice prepared by using Y-27632 (Treatment Example 20); assay type: in vivo, mouse
Description: The double knock-out mice of IL2RG gene and the Bbox1 gene by using the NOD-scid mice in the above-mentioned treatment example 14 were mated with each other, and it was examined whether or not the newborn mouse was affected by Y-27632.

[7] = of 4 surviving and 3 stillborn newborns analysed
[8] = NOG-Bbox1, generation F1, 3 pregnancies
[9] = NOG-Bbox1, generation F2, 8 pregnancies

ave. litter size ([6]; NOG-Bbox1, generation F1): (7.7/preg.)
Total pups [6, 8]: 23
female pups [6, 8]: 13
male pups [6, 8]: 10
ave. litter size ([6]; NOG-Bbox1, generation F2): (6.8/preg.)
Total pups [6, 9]: 54
female pups [6, 9]: 25
male pups [6, 9]: 29
SMILES: C[C@@H](N)[C@H]1CC[C@H](C(=O)Nc2ccncc2)CC1 [Y-27632, trans-4-[(1R)-1-Aminoethyl]-N-4-pyrid inylcyclohexanecarboxamide]
ES cell strains established [1]: 2 strains
ES cells established [2]: at a high rate
pups born ([3]; BALB/c nude embryos, 4 guide RNAs about 400 ng/μL, 14 transfer pulses, 63 embryos transplanted): 16
analysed newborns with mutations [3, 7]: 3
analysed newborns with mutations in 2 genes [3, 7]: 1
mosaics obtained ([4]; electroporated once): 3
individuals obtained ([4]; electroporated once, 20 embryos transplanted): 7
mosaics obtained ([4]; electroporated twice): 3
whites (homo or compound heterozygote) obtained ([4]; electroporated twice): 3
individuals obtained ([4]; electroporated twice, 13 embryos transplanted): 7
RECOVERY RATE about 3 hours later [5]: 94%
RECOVERY RATE about 24 hours later [5]: 89%
RECOVERY RATE immediately after thawing [5]: 36%
number of embryos ABOUT 3 HOURS LATER [5]: 18
number of embryos ABOUT 24 HOURS LATER [5]: 17
number of embryos IMMEDIATELY AFTER THAWING [5]: 7
effect on mouse passage and phenotype ([6]; offspring of mice produced with Y-27632 treated embryos): did not affect mouse passage and phenotype
